Earlier results as cited in patent US10624856B2, “Non-extractable oral solid dosage forms” (Dharma Laboratories LLC, priority 2018, dated 2020).

Key:
[1] = in vivo

Structure (SMILES): C=CCN1CC[C@]23c4c5ccc(O)c4O[C@H]2C(=O)CC[C@@]3(O)[C@H]1C5 [Naloxone]
- oral bioavailability (in words) ([1]; po): low

Structure (SMILES): O=C1CC[C@@]2(O)[C@H]3Cc4ccc(O)c5c4[C@@]2(CCN3CC2CC2)[C@H]1O5 [Naltrexone]
- Plasma protein binding: 21%

Structure (SMILES): Oc1ccc2c3c1O[C@H]1[C@H](O)CC[C@@]4(O)[C@@H](C2)N(CC2CC2)CC[C@]314 [6-beta-naltrexol]
- half-life [1]: 16 h
